Laboratory results as given in US20240299438A1, “METHOD FOR DIAGNOSIS AND TREATMENT OF AUTISM SPECTRUM DISORDER ON BASIS OF ACTIVITY REGULATION MECHANISM OF DORMANT NEURAL STEM CELL” (DONGGUK UNIVERSITY INDUSTRY-ACADEMIC COOPERATION FOUNDATION, priority 2021, published 2024).

Key:
[1] = system: quiescent neural stem cells in SVZ and DG of Shank3-deficient mice; assay: Immunostaining quantification of qNSCs, BrdU+ NSCs and DCX+ cells after drug injection; format: in vivo, mouse; details: for number of GFAP+,Sox2+,Dlx2− qNSCs / number of GFAP+,Sox2+,Id2+ qNSCs: 2 weeks after administration, OICR-9429 3 mg/kg, romidepsin 0.25 mg/kg, clozapine 5 mg/kg, once/day, 3 days
Experimental: (§1) FIG. 5 (A) Immunostaining results of quiescent neural stem cells in the SVZ of control and Shank3 KO mice injected with saline, OICR-9429 (3 mg/kg, once/day, 3 days), romidepsin (0.25 mg/kg, once/day, 3 days), and clozapine (5 mg/kg, once/day, 3 days). The yellow arrows indicate GFAP+Sox2+Dlx2− qNSCs. Scale bar=20 μm. (B) Immunostaining results of quiescent neural stem cells in the DG of control and Shank3 KO mice injected with saline, OICR-9429 (3 mg/kg, once/day, 3 days), romidepsin (0.25 mg/kg, once/day, 3 days), and clozapine (5 mg/kg, once/day, 3 days). The yellow arrows indicate GFAP+Sox2+NeuN− qNSCs. Scale bar=20 μm. (C-E) Quantification results of FAP+Sox2+Id2+ (C) and GFAP+Sox2+Dlx2− (D) qNSCs in the SVZ and GFAP+Sox2+NeuN− (E) qNSCs in the DG. (F) Quantification results of BrdU+ NSCs in the SVZ injected with saline, OICR-9429, romidepsin, and clozapine. Control and Shank3 KO mice injected with each drug were injected intraperitoneally with a daily dose of BrdU (100 mg/kg/day). (G) Quantification results of DCX+ NPCs in the DG of control and Shank3 KO mice injected with each drug. (H) Immunofluorescence analysis of GFAP+,Sox2+,BrdU+ aNSCs in the SVZ of control and Shank3 KO mice injected with each drug. Scale bar=100 μm. (I) Quantification results of BrdU+ cells in the SVZ of saline- or OICR-9429-treated control and Shank3 mice at different time points after TMZ injection. (J) Analysis of protein expression levels of synaptic proteins and glutamate receptor subunits from control or Shank3 KO mice injected with saline or OICR-9429. (K) Results of representative heat maps showing the time spent in 3 chambers to assess the social interactions of control and Shank3 KO mice treated with saline, OICR-9429, romidepsin, clozapine, and VPA. (L-O) Social preference index percentages (Soc vs. NS ratio) in Shank3 KO mice injected with OICR-9429 (L), romidepsin (M), clozapine (N), and VPA (O) for 28 days.
To provide a drug-based therapeutic strategy for autism, Shank3-deficient mice were treated with OICR-9429, which is an antagonist inhibiting H3K4 trimethylation by KMT2A, and the effect was investigated. […] Similarly, OICR-9429 injection reduced the number of GFAP+,Sox2+,NeuN− qNSCs during hippocampal neurogenesis in Shank3-deficient mice (FIGS. 5B and 5E). […] Finally, as a result of treatment with OICR-9429, the number of DCX-positive neuroblasts increased in the brains of Shank3-deficient mice (FIG. 5G).

[2] = system: qNSC activity in SVZ of Shank3-deficient mice; assay: Recovery of BrdU-positive cells after temozolomide (TMZ) injection; format: in vivo, mouse; details: after 7 days of TMZ injection, relative to control mice
Experimental: as §1, with “(J) Analysis of protein expression levels of synaptic proteins and glutamate receptor subunits from control or Shank3 KO mice injected with saline or OICR-9429. (K) Results of representative heat maps showing the time spent in 3 chambers to assess the social interactions of control and Shank3 KO mice treated with saline, OICR-9429, romidepsin, clozapine, and VPA. (L-O) Social preference index percentages (Soc vs. NS ratio) in Shank3 KO mice injected with OICR-9429 (L), romidepsin (M), clozapine (N), and VPA (O) for 28 days.” left out

[3] = system: Homer1, SAPAP3, GluR1, GluR2, NR2A, NR2B; assay: Protein expression levels of synaptic proteins and glutamate receptor subunits in mice; format: in vivo, mouse; details: Shank3-deficient mice
Experimental: as §1, with “(J) Analysis of protein expression levels of synaptic proteins and glutamate receptor subunits from control or Shank3 KO mice injected with saline or OICR-9429. (K) Results of representative heat maps showing the time spent in 3 chambers to assess the social interactions of control and Shank3 KO mice treated with saline, OICR-9429, romidepsin, clozapine, and VPA. (L-O) Social preference index percentages (Soc vs. NS ratio) in Shank3 KO mice injected with OICR-9429 (L), romidepsin (M), clozapine (N), and VPA (O) for 28 days.” left out

Shank3-deficient mice = assay: Social interaction behavioral test (3 chambers) after drug injection; format: in vivo, mouse; details: for time participating in social stimuli: 3-chamber test; for social preference index (persistence of effect): followed for 28 days after injection
Experimental: as §1
In addition, to investigate the therapeutic effect of OICR-9429, a social interaction behavioral test was performed on Shank3-deficient mice injected with various neuropsychiatric drugs.

[4] = system: SHANK3-deficient human radial glia cells; assay: Immunofluorescence of SHANK3-deficient human iPSC-derived neural stem (radial glia) cells; format: cell-based; details: five days after treatment
Description: FIG. 6 (A) Immunostaining results of GFAP+,SOX2+,ID2+ and GFAP+,SOX2+,NESTIN+ quiescent neural stem cells (radical glia cell, RGCs) from control or SHANK3-deficient iPSCs. White arrows indicate human RGCs. Scale bar=20 μm. (B) Quantification results of GFAP+,SOX2+,I D2+ RGCs with radial morphology. (C) Quantification results of GFAP+,SOX2+,NESTIN+ RGCs with radial morphology. (D) Immunostaining of GFAP+,SOX2+,EGFR+ aNSC and K167+ proliferating cells. Scale bar=20 μm. (E) Quantification results of GFAP+,SOX2+,EGFR+ aNSCs from control or SHANK3-deficient RGCs. (F) Quantification results of K167+ proliferating cells from control or SHANK3-deficient RGCs. (G) Immunofluorescence analysis of GFAP+,SOX2+,NESTIN+ RGCs from control or SHANK3-deficient NSCs treated with KMT2A-shRNA. The white arrow indicates cells with radial morphology. Scale bar=20 μm. (H) Quantification results of the number of GFAP+,SOX2+,NESTIN+ RGCs with radial morphology and GFAP+,SOX2+,NESTIN+ RGCs with nonradial morphology treated with KMT2A-shRNA. […]
The molecular mechanisms underlying the autism phenotypes associated with SHANK3 deficiency in human iPSC-derived neural differentiation were investigated. […] Additionally, it was analyzed whether or not SHANK3-deficient human radial glia cells are pharmacologically treated by OICR-9429.

[5] = system: HOMER1, SAPAP3, GluR1, NR2A; assay: Western blot of synaptic proteins and glutamate receptor subunits in SHANK3-deficient human cultures; format: cell-based

Compound	number of rapidly dividing cells labeled with BrdU ([1]; SVZ, Shank3-deficient mice)	number of GFAP+,Sox2+,Dlx2− qNSCs ([1]; SVZ, Shank3-deficient mice)	number of GFAP+,Sox2+,Id2+ qNSCs ([1]; SVZ, Shank3-deficient mice)	number of DCX-positive neuroblasts ([1]; brains (DG) of Shank3-deficient mice)	number of GFAP+,Sox2+,NeuN− qNSCs ([1]; hippocampal neurogenesis (DG), Shank3-deficient mice)	BrdU-positive cells after TMZ injection [2]	expression of synaptic proteins Homer1 and SAPAP3 and glutamate receptor subunits GluR1, GluR2, NR2A, and NR2B [3]	time participating in social stimuli (Shank3-deficient mice)	social preference index (persistence of effect) (Shank3-deficient mice)	proportion of GFAP+,SOX2+,NESTIN+ radial glia cells with non-radial morphology ([4]; SHANK3-deficient neural stem cells)	proportion of GFAP+,SOX2+,NESTIN+ radial glia cells with radial morphology ([4]; SHANK3-deficient radial glia cells)	expression levels of synaptic proteins HOMER1 and SAPAP3 and glutamate receptor subunits GluR1 and NR2A [5]
CN1CCN(c2ccc(-c3cccc(CN4CCOCC4)c3)cc2NC(=O)c2c[nH]c(=O)cc2C(F)(F)F)CC1 [OICR-9429]	greatly increased	significantly decreased	significantly decreased	increased	reduced	significantly recovered	significantly restored	significantly more time	gradually improved up to 3 weeks after injection	significant decrease	decreased	greatly increased
CCCC(CCC)C(=O)O [VPA]								no significant effect	did not improve			
CN1CCN(C2=Nc3cc(Cl)ccc3Nc3ccccc32)CC1 [clozapine]		no effect	no effect					no significant effect				
C/C=C1\NC(=O)[C@H]2CSSCC/C=C/[C@H](CC(=O)N[C@H](C(C)C)C(=O)N2)OC(=O)[C@H](C(C)C)NC1=O [romidepsin]		no effect	no effect					no significant effect				
